In patent US8802849B2, “Tricyclic benzo[4,5]thieno-[2,3-d]pyrimidine-4-yl-amin derivatives, their salts, process for producing the compounds and their pharmaceutical use” (Vichem Chemie Kutató Kft., priority 2008, dated 2014):

Experiments:
EGFR = EGFR (Homo sapiens, UniProt P00533); test: EGFR kinase assay (33P-ATP filter plate); assay type: biochemical; details: for inhibition at 10 µM: 10 μM compound, read-out: EGFR percent of inhibition; for IC50: EGFR-PTK assay
Procedure, shortened: (§1)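 33P incorporation counted after filter-plate capture. Reactions held compound at 10 μM final, ATP at its Km with 12.5 μCi/ml [γ-33P]ATP, substrate 5× Km, enzyme giving 10% ATP turnover; 1 h, room temperature, stopped with EDTA.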

c-Src = c-Src (Homo sapiens, UniProt P12931); test: c-Src kinase assay; assay type: biochemical; details: 10 μM compound; read-out: c-Src percent of inhibition
Procedure, shortened: as §1

Abl = Abl (Homo sapiens, UniProt P00519); test: Abl kinase assay; assay type: biochemical; details: 10 μM compound; read-out: Abl percent of inhibition
Procedure, shortened: as §1

RSK1 = RSK1 (Homo sapiens, UniProt Q15418); test: RSK1 kinase assay; assay type: biochemical; details: 10 μM compound; read-out: RSK1 percent of inhibition
Procedure, shortened: as §1

CK1-alpha = CK1-alpha (Homo sapiens, UniProt P48729); test: CK1-alpha kinase assay; assay type: biochemical; details: 10 μM compound; read-out: CK1-alpha percent of inhibition
Procedure, shortened: as §1

P70S6K = P70S6K (Homo sapiens, UniProt P23443); test: P70S6K kinase assay; assay type: biochemical; details: 10 μM compound; read-out: P70S6K percent of inhibition
Procedure, shortened: as §1

Jnk1a1 = Jnk1a1 (Homo sapiens, UniProt P45983); test: Jnk1a1 kinase assay; assay type: biochemical; details: 10 μM compound; read-out: Jnk1a1 percent of inhibition
Procedure, shortened: as §1

IKK-beta = biological target: T1, IKK-beta (Homo sapiens, UniProt O14920); test: IKK-beta kinase assay; assay type: biochemical; details: 10 μM compound; read-out: IKK-beta percent of inhibition
T1 sequence (O14920 1-756): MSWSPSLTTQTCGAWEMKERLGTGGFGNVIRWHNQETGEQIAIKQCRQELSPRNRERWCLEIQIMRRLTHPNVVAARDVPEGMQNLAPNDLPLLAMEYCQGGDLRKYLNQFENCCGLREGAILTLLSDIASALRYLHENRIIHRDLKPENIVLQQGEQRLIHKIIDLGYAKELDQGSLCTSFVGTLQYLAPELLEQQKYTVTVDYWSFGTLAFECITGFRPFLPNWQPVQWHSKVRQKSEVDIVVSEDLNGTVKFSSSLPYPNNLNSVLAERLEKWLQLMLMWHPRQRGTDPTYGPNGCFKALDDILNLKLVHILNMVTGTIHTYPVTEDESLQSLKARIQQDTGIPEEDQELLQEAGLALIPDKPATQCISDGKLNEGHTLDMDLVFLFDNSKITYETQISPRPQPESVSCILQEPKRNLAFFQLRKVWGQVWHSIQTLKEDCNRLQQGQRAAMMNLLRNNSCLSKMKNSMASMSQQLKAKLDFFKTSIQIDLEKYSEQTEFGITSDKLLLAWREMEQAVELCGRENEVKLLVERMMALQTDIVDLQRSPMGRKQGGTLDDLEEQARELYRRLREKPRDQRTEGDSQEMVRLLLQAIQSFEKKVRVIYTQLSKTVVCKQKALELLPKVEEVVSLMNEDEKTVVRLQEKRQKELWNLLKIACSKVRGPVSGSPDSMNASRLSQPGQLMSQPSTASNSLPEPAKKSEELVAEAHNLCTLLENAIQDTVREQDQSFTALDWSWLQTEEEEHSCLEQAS
Procedure, shortened: as §1

GSK-3beta = GSK-3beta (Homo sapiens, UniProt P49841); test: GSK-3beta kinase assay; assay type: biochemical; details: 10 μM compound; read-out: GSK-3beta percent of inhibition
Procedure, shortened: as §1

CDK2/CycA = CDK2/CycA (Homo sapiens, UniProt P24941); test: CDK2/CycA kinase assay; assay type: biochemical; details: 10 μM compound; read-out: CDK2/CycA percent of inhibition
Procedure, shortened: as §1

P56Lck = P56Lck (Homo sapiens, UniProt P06239); test: P56Lck kinase assay; assay type: biochemical; details: 10 μM compound; read-out: P56Lck percent of inhibition
Procedure, shortened: as §1

MAPK-ERK1 = MAPK-ERK1 (Homo sapiens, UniProt P27361); test: MAPK-ERK1 kinase assay; assay type: biochemical; details: 10 μM compound; read-out: MAPK-ERK1 percent of inhibition
Procedure, shortened: as §1

cMet = cMet (Homo sapiens, UniProt P08581); test: cMet kinase assay; assay type: biochemical; details: 10 μM compound; read-out: cMet percent of inhibition
Procedure, shortened: as §1

ROCK2 = ROCK2 (Homo sapiens, UniProt O75116); test: ROCK2 kinase assay; assay type: biochemical; details: 10 μM compound; read-out: ROCK2 percent of inhibition
Procedure, shortened: as §1

SRPK1 = SRPK1 (Homo sapiens, UniProt Q96SB4); test: SRPK1 kinase assay; assay type: biochemical; details: 10 μM compound; read-out: SRPK1 percent of inhibition
Procedure, shortened: as §1

c-Raf = c-Raf (Homo sapiens, UniProt P04049); test: c-Raf kinase assay; assay type: biochemical; details: 10 μM compound; read-out: c-Raf percent of inhibition
Procedure, shortened: as §1

AKT1/PKBa = AKT1/PKBa (Homo sapiens, UniProt P31749); test: AKT1/PKBa kinase assay; assay type: biochemical; details: 10 μM compound; read-out: AKT1/PKBa percent of inhibition
Procedure, shortened: as §1

InsR = InsR (Homo sapiens, UniProt P06213); test: InsR kinase assay; assay type: biochemical; details: 10 μM compound; read-out: InsR percent of inhibition
Procedure, shortened: as §1

PDGFR-beta = PDGFR-beta (Homo sapiens, UniProt P09619); test: PDGFR-beta kinase assay; assay type: biochemical; details: 10 μM compound; read-out: PDGFR-beta percent of inhibition
Procedure, shortened: as §1

Kit = Kit (Homo sapiens, UniProt P10721); test: Kit kinase assay; assay type: biochemical; details: 10 μM compound; read-out: Kit percent of inhibition
Procedure, shortened: as §1

GSK-3beta, sequence (P49841 whole entry, species assumed): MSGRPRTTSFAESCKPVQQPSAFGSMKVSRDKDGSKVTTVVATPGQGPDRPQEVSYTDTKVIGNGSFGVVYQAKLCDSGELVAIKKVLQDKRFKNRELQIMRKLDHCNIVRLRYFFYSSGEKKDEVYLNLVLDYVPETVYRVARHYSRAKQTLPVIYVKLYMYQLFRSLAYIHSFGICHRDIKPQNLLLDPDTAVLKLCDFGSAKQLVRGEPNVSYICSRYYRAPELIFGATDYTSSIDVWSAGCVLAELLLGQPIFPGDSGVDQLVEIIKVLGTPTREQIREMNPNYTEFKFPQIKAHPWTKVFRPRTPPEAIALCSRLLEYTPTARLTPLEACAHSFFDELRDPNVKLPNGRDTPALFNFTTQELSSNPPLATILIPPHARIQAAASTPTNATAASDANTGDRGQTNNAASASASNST
P56Lck, sequence (P06239 whole entry, species assumed): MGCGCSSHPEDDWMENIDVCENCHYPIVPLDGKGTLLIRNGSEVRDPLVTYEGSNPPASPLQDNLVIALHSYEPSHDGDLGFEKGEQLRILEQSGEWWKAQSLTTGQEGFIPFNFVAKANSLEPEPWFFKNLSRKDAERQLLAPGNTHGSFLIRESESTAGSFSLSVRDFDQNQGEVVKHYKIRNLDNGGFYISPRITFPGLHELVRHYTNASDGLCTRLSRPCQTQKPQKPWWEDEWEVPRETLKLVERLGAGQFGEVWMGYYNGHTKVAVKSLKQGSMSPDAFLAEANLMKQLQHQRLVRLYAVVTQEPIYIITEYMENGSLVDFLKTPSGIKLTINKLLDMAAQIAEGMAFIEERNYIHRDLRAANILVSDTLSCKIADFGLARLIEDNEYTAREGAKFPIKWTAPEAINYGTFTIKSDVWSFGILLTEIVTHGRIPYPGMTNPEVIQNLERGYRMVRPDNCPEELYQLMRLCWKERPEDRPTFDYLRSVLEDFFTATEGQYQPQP
P70S6K, sequence (P23443 whole entry): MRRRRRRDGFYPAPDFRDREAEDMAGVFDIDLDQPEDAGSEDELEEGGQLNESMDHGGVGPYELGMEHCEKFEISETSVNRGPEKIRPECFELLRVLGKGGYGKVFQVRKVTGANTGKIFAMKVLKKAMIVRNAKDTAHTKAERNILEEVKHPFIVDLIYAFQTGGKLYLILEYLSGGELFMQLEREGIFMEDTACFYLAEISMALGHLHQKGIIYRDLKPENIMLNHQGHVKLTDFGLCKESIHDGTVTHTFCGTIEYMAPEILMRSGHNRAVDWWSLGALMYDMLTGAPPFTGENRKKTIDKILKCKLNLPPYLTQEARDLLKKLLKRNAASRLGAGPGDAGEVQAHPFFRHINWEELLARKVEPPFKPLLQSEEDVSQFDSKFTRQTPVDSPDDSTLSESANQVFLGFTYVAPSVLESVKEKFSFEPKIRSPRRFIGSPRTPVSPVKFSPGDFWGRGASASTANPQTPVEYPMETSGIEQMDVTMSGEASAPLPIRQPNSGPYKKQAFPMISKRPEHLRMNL
InsR, sequence (P06213 28-1382, species assumed): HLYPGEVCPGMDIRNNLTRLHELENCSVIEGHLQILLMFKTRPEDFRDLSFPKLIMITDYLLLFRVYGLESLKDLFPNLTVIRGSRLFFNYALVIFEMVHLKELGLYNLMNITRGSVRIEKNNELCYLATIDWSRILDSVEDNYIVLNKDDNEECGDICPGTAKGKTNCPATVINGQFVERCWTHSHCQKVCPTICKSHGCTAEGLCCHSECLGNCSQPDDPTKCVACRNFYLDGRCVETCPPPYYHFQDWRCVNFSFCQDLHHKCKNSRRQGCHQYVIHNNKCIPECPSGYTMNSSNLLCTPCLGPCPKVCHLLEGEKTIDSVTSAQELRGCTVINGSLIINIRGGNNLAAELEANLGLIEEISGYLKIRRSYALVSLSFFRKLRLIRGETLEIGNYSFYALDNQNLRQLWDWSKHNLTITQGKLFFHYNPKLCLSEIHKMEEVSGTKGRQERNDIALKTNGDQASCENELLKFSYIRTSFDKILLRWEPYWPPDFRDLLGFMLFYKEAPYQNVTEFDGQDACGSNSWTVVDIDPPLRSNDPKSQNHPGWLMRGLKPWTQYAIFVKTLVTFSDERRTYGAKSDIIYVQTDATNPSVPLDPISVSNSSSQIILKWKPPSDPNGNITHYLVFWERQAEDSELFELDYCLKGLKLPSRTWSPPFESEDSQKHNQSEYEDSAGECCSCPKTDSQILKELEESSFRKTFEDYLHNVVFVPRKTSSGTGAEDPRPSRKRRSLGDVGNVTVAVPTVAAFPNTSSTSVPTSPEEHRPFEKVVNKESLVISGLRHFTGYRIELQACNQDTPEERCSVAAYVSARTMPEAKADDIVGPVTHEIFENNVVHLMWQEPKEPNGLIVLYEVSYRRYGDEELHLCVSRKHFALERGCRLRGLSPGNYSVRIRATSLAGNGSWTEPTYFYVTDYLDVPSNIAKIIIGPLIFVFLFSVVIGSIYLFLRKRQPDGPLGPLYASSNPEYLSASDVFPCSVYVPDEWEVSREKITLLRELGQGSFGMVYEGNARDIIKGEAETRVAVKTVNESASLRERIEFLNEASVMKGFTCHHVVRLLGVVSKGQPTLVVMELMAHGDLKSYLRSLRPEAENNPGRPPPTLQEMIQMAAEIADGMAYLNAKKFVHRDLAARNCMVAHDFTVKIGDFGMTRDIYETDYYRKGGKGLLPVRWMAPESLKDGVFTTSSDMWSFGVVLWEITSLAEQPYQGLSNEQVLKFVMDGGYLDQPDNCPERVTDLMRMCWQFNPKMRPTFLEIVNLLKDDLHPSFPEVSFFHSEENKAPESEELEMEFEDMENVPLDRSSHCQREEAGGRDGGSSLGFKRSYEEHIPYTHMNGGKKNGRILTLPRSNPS
PDGFR-beta, sequence (P09619 33-1106, species assumed): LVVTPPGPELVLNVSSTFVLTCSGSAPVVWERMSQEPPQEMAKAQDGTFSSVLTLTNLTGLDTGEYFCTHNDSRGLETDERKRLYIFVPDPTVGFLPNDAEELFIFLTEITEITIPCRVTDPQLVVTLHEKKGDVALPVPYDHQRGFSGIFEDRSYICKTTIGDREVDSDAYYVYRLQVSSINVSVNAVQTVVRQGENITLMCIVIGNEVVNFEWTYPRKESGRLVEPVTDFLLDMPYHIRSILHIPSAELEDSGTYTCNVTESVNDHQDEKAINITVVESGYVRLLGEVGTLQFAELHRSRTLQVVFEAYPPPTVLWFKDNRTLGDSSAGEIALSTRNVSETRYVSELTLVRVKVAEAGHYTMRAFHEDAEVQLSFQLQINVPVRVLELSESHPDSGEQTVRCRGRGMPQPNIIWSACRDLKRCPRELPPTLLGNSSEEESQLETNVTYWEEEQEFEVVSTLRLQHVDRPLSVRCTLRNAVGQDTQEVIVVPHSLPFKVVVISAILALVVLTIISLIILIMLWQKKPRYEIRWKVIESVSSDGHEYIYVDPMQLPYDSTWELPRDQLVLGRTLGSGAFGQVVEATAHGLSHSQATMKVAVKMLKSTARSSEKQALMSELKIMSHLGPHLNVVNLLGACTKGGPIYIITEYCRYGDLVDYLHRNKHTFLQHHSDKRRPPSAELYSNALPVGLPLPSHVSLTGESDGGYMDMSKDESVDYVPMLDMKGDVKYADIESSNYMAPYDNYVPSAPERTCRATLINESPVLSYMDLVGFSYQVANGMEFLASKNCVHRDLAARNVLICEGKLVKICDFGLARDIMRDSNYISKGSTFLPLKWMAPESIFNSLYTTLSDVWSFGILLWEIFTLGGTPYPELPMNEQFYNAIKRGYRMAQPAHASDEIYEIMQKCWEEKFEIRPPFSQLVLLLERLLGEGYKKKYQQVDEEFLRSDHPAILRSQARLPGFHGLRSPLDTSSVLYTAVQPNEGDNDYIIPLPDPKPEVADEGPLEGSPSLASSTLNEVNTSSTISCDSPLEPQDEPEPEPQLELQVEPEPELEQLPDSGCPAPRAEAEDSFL
SRPK1, sequence (Q96SB4 whole entry, species assumed): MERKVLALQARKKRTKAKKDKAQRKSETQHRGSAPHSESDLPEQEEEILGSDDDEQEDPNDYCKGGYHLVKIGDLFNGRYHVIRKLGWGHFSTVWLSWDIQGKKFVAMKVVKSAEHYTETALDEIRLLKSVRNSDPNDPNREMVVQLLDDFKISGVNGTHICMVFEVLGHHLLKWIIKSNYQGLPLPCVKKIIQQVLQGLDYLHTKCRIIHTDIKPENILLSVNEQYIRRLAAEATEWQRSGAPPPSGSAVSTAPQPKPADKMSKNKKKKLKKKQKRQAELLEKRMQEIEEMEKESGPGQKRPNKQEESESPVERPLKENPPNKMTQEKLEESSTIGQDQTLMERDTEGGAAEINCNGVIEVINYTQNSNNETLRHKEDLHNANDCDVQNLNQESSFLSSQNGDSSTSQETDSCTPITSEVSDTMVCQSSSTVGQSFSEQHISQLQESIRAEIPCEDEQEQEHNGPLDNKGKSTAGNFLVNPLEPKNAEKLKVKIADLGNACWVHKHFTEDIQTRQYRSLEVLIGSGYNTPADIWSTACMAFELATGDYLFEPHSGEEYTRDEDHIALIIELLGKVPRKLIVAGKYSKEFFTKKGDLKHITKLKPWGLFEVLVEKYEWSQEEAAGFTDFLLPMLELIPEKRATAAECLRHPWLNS
AKT1/PKBa, sequence (P31749 whole entry): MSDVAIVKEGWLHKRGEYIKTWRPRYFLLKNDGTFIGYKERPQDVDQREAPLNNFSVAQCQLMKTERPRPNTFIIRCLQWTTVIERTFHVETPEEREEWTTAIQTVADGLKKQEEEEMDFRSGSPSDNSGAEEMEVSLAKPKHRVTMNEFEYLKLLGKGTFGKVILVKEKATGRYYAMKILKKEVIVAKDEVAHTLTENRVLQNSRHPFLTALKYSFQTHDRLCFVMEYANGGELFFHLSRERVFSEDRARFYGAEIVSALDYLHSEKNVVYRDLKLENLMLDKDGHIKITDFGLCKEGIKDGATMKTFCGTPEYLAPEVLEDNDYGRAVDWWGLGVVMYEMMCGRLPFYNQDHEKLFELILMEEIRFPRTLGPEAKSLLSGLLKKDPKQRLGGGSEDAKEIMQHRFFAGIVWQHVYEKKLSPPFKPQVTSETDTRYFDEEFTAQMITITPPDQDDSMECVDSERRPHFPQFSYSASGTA

SMILES | inhibition at 10 µM (EGFR) [%] | inhibition at 10 µM (c-Src) [%] | inhibition at 10 µM (Abl) [%] | inhibition at 10 µM (RSK1) [%] | inhibition at 10 µM (CK1-alpha) [%] | inhibition at 10 µM (P70S6K) [%] | inhibition at 10 µM (Jnk1a1) [%] | inhibition at 10 µM (IKK-beta) [%] | inhibition at 10 µM (GSK-3beta) [%] | inhibition at 10 µM (CDK2/CycA) [%] | inhibition at 10 µM (P56Lck) [%] | inhibition at 10 µM (MAPK-ERK1) [%] | inhibition at 10 µM (cMet) [%] | inhibition at 10 µM (ROCK2) [%] | inhibition at 10 µM (SRPK1) [%] | melting point [°C] | inhibition at 10 µM (c-Raf) [%] | inhibition at 10 µM (AKT1/PKBa) [%] | inhibition at 10 µM (InsR) [%] | inhibition at 10 µM (PDGFR-beta) [%] | other results
N#Cc1cccc(Nc2ncnc3sc4c(c23)CCCC4)c1 [Compound 5, 3-(5,6,7,8-Tetrahydro-benzo[4,5]thieno[2,3-d]pyrimidin-4-ylamino)-benzonitrile] | 99 | 8 | -7 | 19 | 7 | 1 | -3 | 10 | -6 | 9 | -5 | -5 | -4 | -2 | 7 | 194.6 | 0 | -25 | -7 | -5 | inhibition at 10 µM (Kit): -5%
Nc1ccc(Nc2ncnc3sc4c(c23)CCCC4)cc1 [Compound 8, N-(5,6,7,8-Tetrahydro-benzo[4,5]thieno[2,3-d]pyrimidin-4-yl)-benzene-1,4-diamine] | 96 | 16 | 19 | 6 | 4 | 7 | 20 | 16 | 8 | 12 | 2 | 12 | 9 | -11 | -4 | 203.1 | 11 | 4 | 36 | 6 | inhibition at 10 µM (Kit): 20%
Brc1cccc(Nc2ncnc3sc4c(c23)CCCC4)c1 [Compound 3, (3-Bromo-phenyl)-(5,6,7,8-tetrahydro-benzo[4,5]thieno[2,3-d]pyrimidin-4-yl)-amine] | 100 | 17 | -36 | 23 | 17 | 4 | 4 | 11 | -10 | 4 | 17 | 0 | -8 | 12 | 8 | 169 | -4 | -27 | -9 | 1 | IC50 (EGFR): 2.61 nM; inhibition at 10 µM (Kit): -2%

The next lines start with results.

inhibition at 10 µM (EGFR) [%] | inhibition at 10 µM (c-Src) [%] | inhibition at 10 µM (Abl) [%] | inhibition at 10 µM (RSK1) [%] | inhibition at 10 µM (CK1-alpha) [%] | inhibition at 10 µM (P70S6K) [%] | inhibition at 10 µM (Jnk1a1) [%] | inhibition at 10 µM (IKK-beta) [%] | inhibition at 10 µM (GSK-3beta) [%] | inhibition at 10 µM (CDK2/CycA) [%] | inhibition at 10 µM (P56Lck) [%] | inhibition at 10 µM (MAPK-ERK1) [%] | inhibition at 10 µM (cMet) [%] | inhibition at 10 µM (ROCK2) [%] | inhibition at 10 µM (SRPK1) [%] | melting point [°C] | inhibition at 10 µM (c-Raf) [%] | inhibition at 10 µM (AKT1/PKBa) [%] | inhibition at 10 µM (InsR) [%] | inhibition at 10 µM (PDGFR-beta) [%] | SMILES | other results
99 | 7 | -10 | -4 | 7 | -1 | -10 | -5 | -3 | 12 | 4 | 8 | 4 | 2 | 6 | 160 | 3 | 9 | 4 | 10 | Brc1cccc(Nc2ncnc3sc4ccccc4c23)c1 [Compound 23, Benzo[4,5]thieno[2,3-d]pyrimidin-4-yl-(3-bromo-phenyl)-amine] | IC50 (EGFR): 8.08 nM; inhibition at 10 µM (Kit): 6%
87 | 22 | -2 | -4 | 10 | 2 | -7 | 3 | 0 | -2 | 11 | -6 | -7 | 4 | 12 | 180 | -8 | 0 | 5 | 0 | Brc1cccc(Nc2nc(C3CC3)nc3sc4ccccc4c23)c1 [Compound 18, (2-Cyclopropyl-benzo[4,5]thieno[2,3-d]pyrimidin-4-yl)-(3-bromo-phenyl)-amine] | inhibition at 10 µM (Kit): 5%
60 | 2 | 3 | 2 | 0 | 8 | -4 | -4 | 1 | -2 | 7 | 6 | 0 | 9 | 10 | 193 | -4 | -7 | 2 | -3 | Fc1cccc(Nc2nc(C3CC3)nc3sc4ccccc4c23)c1 [Compound 16, (2-Cyclopropyl-benzo[4,5]thieno[2,3-d]pyrimidin-4-yl)-(3-fluoro-phenyl)-amine] | inhibition at 10 µM (Kit): -1%
